With `CCc1nccn1Cc1ccc2c(c1)Nc1nccnc1S2`, the melting point lay within 230 to 231 °C. The figure for `FC(F)(F)c1nccn1Cc1ccc2c(c1)Nc1nccnc1S2` is 231 to 233 °C.

As for `O=C(O)c1ccc(Cc2nccn2Cc2ccc3c(c2)Nc2nccnc2S3)cc1`, the melting point was 185 to 188 °C. The figure for `O=C(O)c1ccc(C(=O)c2nccn2Cc2ccc3c(c2)Nc2nccnc2S3)cc1` is 242 to 246 °C; for `Cc1ncn(Cc2ccc3c(c2)Nc2nccnc2S3)c1C(=O)O` it is 235 °C (dec.). The figure for `CC/C(=C\c1c(C)ncn1Cc1ccc2c(c1)Nc1nccnc1S2)C(=O)O` is 172 °C; for `C/C(O)=C(\C#N)C(=O)Nc1ccc(-c2cn(Cc3ccc4c(c3)Nc3nccnc3S4)cn2)cc1` it is 259 to 261 °C. The figure for `Cc1ncn(Cc2ccc3c(c2)Nc2nccnc2S3)c1C(C)(C)O` is 199 to 202 °C; for `c1cc(CCc2ccc3c(c2)Nc2nccnc2S3)ccn1` it is 179 to 183 °C. Take `COc1ccc(C(O)c2ccc3c(c2)Nc2nccnc2S3)cc1` (centres unmarked): the melting point lay in the range of 84 to 86 °C. The figure for `OC(CCc1ccccc1)c1ccc2c(c1)Nc1nccnc1S2` (centres unmarked) is 156 to 158 °C; for `O=C(O)c1ccc(CNCc2ccc3c(c2)Nc2nccnc2S3)cc1` it is 245 to 248 °C; for `CCNC(=O)c1ccc2c(c1)Nc1nccnc1S2` it is 274 to 275 °C. The figure for `CCCNC(=O)Cc1ccc2c(c1)Nc1nccnc1S2` is 212 °C (dec.); for `c1ccc(COCc2ccc3c(c2)Nc2nccnc2S3)cc1` it is 118 to 120 °C. To `Nc1ncnc2c1ncn2Cc1ccc2c(c1)Nc1nccnc1S2` belongs 290 °C; to `O=C(O)C1CCN(c2ncnc3c2ncn3Cc2ccc3c(c2)Nc2nccnc2S3)CC1`, 238 to 240 °C. `c1ccc(CN2CCN(c3ncnc4c3ncn4Cc3ccc4c(c3)Nc3nccnc3S4)CC2)cc1`: the melting point is 213 to 214 °C. To `CC(O)c1ncnc2ncn(Cc3ccc4c(c3)Nc3nccnc3S4)c12` (centres unmarked) belongs 205 to 208 °C.

`CC(C)(O)c1ncnc2ncn(Cc3ccc4c(c3)Nc3nccnc3S4)c12` came in with a melting point of 268 to 271 °C.

The compound `CC(C)(O)c1ncnc2c1ncn2Cc1ccc2c(c1)Nc1nccnc1O2` displayed a melting point of 143 to 145 °C.

`CC(O)c1ncnc2c1ncn2Cc1ccc2c(c1)Nc1nccnc1S2` (centres unmarked) registered a melting point of 210 to 212 °C. To `Cl.N=C(N)c1ccc2c(c1)Nc1nccnc1S2` belongs over 280 °C; to `Cl.N=C(N)Cc1ccc2c(c1)Nc1nccnc1S2`, over 280 °C.

For the compound `Cl.N=C(Cc1ccc2c(c1)Nc1nccnc1S2)Nc1ccccc1`, the melting point was 245 to 249 °C (dec.). To `N/C(Cc1ccc2c(c1)Nc1nccnc1S2)=N\S(=O)(=O)C(F)(F)F` belongs 200 to 202 °C. The figure for `CN1CCCN=C1Cc1ccc2c(c1)Nc1nccnc1S2.Cl` is over 280 °C. To `Cl.N=C(N)NCc1ccc2c(c1)Nc1nccnc1S2` belongs 279 to 282 °C. Compound `CC(=O)NCCC1CCN(Cc2ccc3c(c2)Nc2nccnc2S3)CC1` returned a melting point of 194 to 196 °C. To `CS(=O)(=O)N1CCC(NCc2ccc3c(c2)Nc2nccnc2S3)CC1` belongs 219 to 221 °C; to `COC1CCN(Cc2ccc3c(c2)Nc2nccnc2S3)CC1`, 172 to 174 °C. To `NC(=O)C1CCN(Cc2ccc3c(c2)Nc2nccnc2S3)CC1` belongs 225 to 228 °C; to `CC1CCCC(C)N1Cc1ccc2c(c1)Nc1nccnc1S2` (centres unmarked), 168 to 172 °C. The figure for `O=C1NC(=O)C2(CCN(Cc3ccc4c(c3)Nc3nccnc3S4)CC2)N1` is over 275 °C; for `c1ccc2c(c1)CN(Cc1ccc3c(c1)Nc1nccnc1S3)C2` it is 219 to 220 °C. In the case of `CNS(=O)(=O)NCC1CN(Cc2ccc3c(c2)Nc2nccnc2S3)C1`, the melting point fell in the range of 173 to 176 °C. To `OCC1(O)CCN(Cc2ccc3c(c2)Nc2nccnc2S3)CC1` belongs 170 to 173 °C. Turning to `CCC/C(=N\OCC(=O)O)C1CCN(Cc2ccc3c(c2)Nc2nccnc2S3)CC1`, the melting point fell in the range of 193 to 195 °C. The figure for `O=C(O)CC(=O)N1CCC(NCc2ccc3c(c2)Nc2nccnc2S3)CC1` is 167 to 170 °C. The figure for `CC(CCC1CCN(CCCc2ccc3c(c2)Nc2nccnc2S3)CC1)C(=O)O` (centres unmarked) is 235 to 238 °C; for `O=C(O)Cc1cccc(C2CCN(Cc3ccc4c(c3)Nc3nccnc3S4)CC2)c1` it is 130 to 132 °C. The figure for `COc1cc(C2CCN(Cc3ccc4c(c3)Nc3nccnc3S4)CC2)cc(CC(=O)O)c1OC` is 138 to 140 °C.

`CC(C)(CC(=O)O)CC1CCN(Cc2ccc3c(c2)Nc2nccnc2S3)CC1` registered a melting point of 230 to 232 °C.

As to `CC(CCC1CCN(Cc2ccc3c(c2)Nc2ccncc2S3)CC1)C(=O)O` (centres unmarked), the melting point is 210 to 215 °C. To `CC1(CC(=O)O)CC2(CCN(Cc3ccc4c(c3)Nc3nccnc3S4)CC2)C1` belongs 149 to 151 °C; to `CCCCC1(CC(=O)O)CC2(CCN(Cc3ccc4c(c3)Nc3nccnc3S4)CC2)C1`, 133 to 135 °C. `O=C(O)C#CC1CCN(Cc2ccc3c(c2)Nc2nccnc2S3)CC1`: the melting point fell in the range of 155 to 156 °C.

In the case of `O=C(O)COC1CCN(Cc2ccc3c(c2)Nc2nccnc2S3)CC1`, the melting point is 204 to 207 °C. The figure for `O=C(O)c1ccc(CN2c3ccccc3Nc3nccnc32)cc1` is 253 to 255 °C; for `O=C(O)CCCN1c2ccccc2Nc2nccnc21` it is 273 to 274 °C. The figure for `CN1c2ccc(C=O)cc2Nc2nccnc21` is 215 to 219 °C; for `CN1c2ccc(-c3cnco3)cc2Nc2nccnc21` it is 268 to 269 °C; for `CN1c2ccc(C(O)c3cccs3)cc2Nc2nccnc21` (centres unmarked) it is over 275 °C. The figure for `CN1c2ccc(C(O)c3nccn3S(=O)(=O)N(C)C)cc2Nc2nccnc21` (centres unmarked) is 185 to 190 °C; for `CN1c2ccc(C(O)c3nnc[nH]3)cc2Nc2nccnc21` (centres unmarked) it is over 275 °C. In the case of `CN1c2ccc(C(N)c3ccccn3)cc2Nc2nccnc21` (centres unmarked), the melting point was over 275 °C. The figure for `CN(C)C(=O)C#Cc1ccc2c(c1)Nc1nccnc1N2C` is 203 to 205 °C; for `CN1c2ccc(C#Cc3ccccc3)cc2Nc2nccnc21` it is 245 to 247 °C. To `c1cc(NCc2ccc3c(c2)Nc2nccnc2S3)ccn1` belongs 194 to 196 °C; to `O=C(O)CCC1C2CCCC1CN(Cc1ccc3c(c1)Nc1nccnc1S3)C2` (centres unmarked), 223 to 225 °C. The figure for `CN(C)c1ccc(NCc2ccc3c(c2)Nc2nccnc2S3)cn1` is 244 to 247 °C.

`CCc1ccc(NCc2ccc3c(c2)Nc2nccnc2S3)cn1` came in with a melting point of 202 to 204 °C. `OCCCCCCOc1ccc(NCc2ccc3c(c2)Nc2nccnc2S3)cn1` came in with a melting point of 124 to 128 °C. To `O=C(O)c1ccc(NCc2ccc3c(c2)Nc2nccnc2S3)nc1` belongs 215 to 220 °C; to `O=C(c1ccccc1)N(Cc1ccc2c(c1)Nc1nccnc1S2)c1cccnc1`, 178 to 182 °C.

The values are drawn from patent US6518423B1, “Benzopiperidine derivatives” (Eisai Co., Ltd., priority 1996, dated 2003).
